Reference: patent US20240044899A1, “BIOMARKERS FOR FIMEPINOSTAT THERAPY” (Curis, Inc, priority 2021, published 2024)
“And” between values parts separate entries of the source, which are not always exact repeats. Equal entries are not always repeated. “Also recorded” adds a separate entry of the source.

Columns and labels:
[1] = test system: DLBCL xenografts with MYC alterations; details: cited from earlier work
[2] = test system: R/R DLBCL/HGBL patients with MYC-altered disease; test: Phase 1 and phase 2 clinical studies of fimepinostat, response and survival outcomes; assay type: in vivo, human
Text: Included subjects were enrolled in either the dose escalation and expansion portion of the phase 1 study evaluating fimepinsotat with or without rituximab (part 1) or the phase 2 study with fimepinostat monotherapy.
For the phase 1/part 1 study, key inclusion criteria were ≥18 years of age with histopathologically confirmed diagnosis of DLBCL or transformed follicular lymphoma (tFL) refractory to or relapsed after at least 2 prior regimens, Eastern Cooperative Oncology Group (ECOG) performance status 0-2, measurable disease on baseline radiographic assessment and adequate hematologic and organ function. Key exclusion criteria were receipt of systemic anti-cancer therapy within 3 weeks of study entry, ongoing treatment with chronic immunosuppressive therapy, active CNS lymphoma and gastrointestinal conditions which may interfere with absorption of fimepinostat. For the phase 2 study, key inclusion criteria were ≥18 years of age with histopathologically confirmed diagnosis of DLBCL, HGBL or tFL refractory to or relapsed after 2-4 prior lines of therapy for the treatment of de novo DLBCL and ineligible for (or failed) autologous or allogeneic stem cell transplant (SCT), Eastern Cooperative Oncology Group (ECOG) performance status 0-1, measurable disease on baseline radiographic assessment, confirmed availability of viable tissue (defined as most recent available archival tumor tissue, or fresh tumor samples) for central laboratory FISH and IHC testing prior to study dosing and adequate hematologic and organ function. Key exclusion criteria were receipt of systemic anti-cancer therapy within 2 weeks of study entry or experimental therapy within 5 terminal half-lives (t1/2) or 4 weeks prior to enrollment, known primary mediastinal, ocular, epidural, testicular or breast lymphoma and current or planned glucocorticoid therapy with the exception of doses ≤10 mg/day prednisolone or equivalent.
Patients received fimepinostat capsules (Pharmatek Laboratories Inc., San Diego, CA, USA) orally, within 30 minutes of a meal, in 21-day cycles until disease progression was documented or other discontinuation criteria were met. In the phase 2 protocol, change in dose and/or schedule intensity of fimepinostat were allowed as per protocol due to toxicity. Safety and tolerability were assessed by the incidence and severity of adverse events as determined by NCI Common Terminology Criteria for Adverse Events (CTCAE v4.03) in both protocols.
The intention to-treat-population included al patients from both protocols who received at least one dose of fimepinostat. The evaluable population includes all patients who received at least one dose of study drug (phase 1) or one full cycle of treatment (phase 2) and completed at least one post-baseline disease assessment. Patients were re-staged according to the Revised Response Criteria for Malignant Lymphoma.^18
MYC-altered disease was defined as one or more of the following results from central testing of tumor samples: expression of MYC protein in ≥40% of lymphoma cells by immunohistochemical staining (IHC), MYC rearrangement by fluorescence in situ hybridization (FISH) or >2 copies of MYC in by FISH. IHC staining of MYC (rabbit clone Y69) and BCL2 (mouse clone 124) for patients enrolled in the phase 1 study (note MYC FISH was not centrally performed in this study) were performed by Mosaic Laboratories, LLC (Lake Forest, CA, USA). IHC staining of MYC (rabbit clone Y69) and BCL2 (mouse clone 124) as well as FISH with MYC (8q24) and BCL6 (3q27) break apart probes and BCL2 (t(14;18)) fusion probe for patients enrolled in the phase 2 study were performed by NeoGenomics Laboratories, Inc (Fort Myers, FL, USA), with positive cutoff values for MYC rearrangement (>10%), MYC copy number gain (>20%), BCL2 rearrangement (≥0.5%) and BCL6 rearrangement (>10%) as defined per laboratory standard. […]

[3] = evaluable population (n = 43), 60 mg by mouth 5 days on/2 days off
[4] = evaluable population (n = 43), estimated
[5] = individual patients achieving partial or complete response (Subject ID 1-9)

Compound: COc1ccc(-c2nc(N3CCOCC3)c3sc(CN(C)c4ncc(C(=O)NO)cn4)cc3n2)cn1 [fimepinostat, Fimepinostat]
- Preclinical activity compared to HDAC or PI3K inhibitor monotherapy [1]: superior preclinical activity
- Responding patients who remained on treatment for over 2 years without disease progression, number ([2]; 9 responding patients): 4
- Overall response rate ([2]; evaluable population (n = 43)): 21%
- Overall response, number of patients ([2]; evaluable population (n = 43)): 9
- Partial response, number of patients ([2]; evaluable population (n = 43)): 3
- Progressive disease, number of patients ([2]; evaluable population (n = 43)): 26
- Complete response, % of patients [2, 3]: 14%
- Complete response, number of patients [2, 3]: 6
- Alive at 6 months [2, 4]: 54% (95% CI 37-68%)
- Progression free at 6 months [2, 4]: 18% (95% CI 8-31%)
- DOR (duration of response) [2, 5]: 30.0 months and 24.4 months and 23.8 months and 1.0/1.0 months and 4.2 months and 4.1 months (2×) and 2.8 months and 40.5 months
- Status at end of study [2, 5]: Alive; also recorded: Deceased
- TTR (time to response) [2, 5]: 2.7 months and 2.8 months (3×) and 1.0/1.0 months and 1.3 months (2×) and 4.0 months and 1.2 months
- Median duration of response ([2]; responding patients of evaluable population): Not yet reached (95% CI 1.4 months-
